Data reported in patent publication US20260083865A1, “PROSTATE SPECIFIC MEMBRANE ANTIGEN (PSMA) LIGANDS AND USE THEREOF” (priority 2022, published 2026).
Where two headings read alike, the source gives them in different places. Numbered stars: 1 amine (or outer) side, 2 acyl side, 3 side chain; on linkers, the order of the positions; unused ones are H or OH. Bridge positions count the residues as written; N and C are the ends. Square brackets hold non-standard residues; d marks the D form. Peptide text beside a SMILES is read from it. * marks the point of attachment. X11 = O=C(CCCC[C@@H]1SC[C@@H]2NC(=O)N[C@@H]21)NCCCOCCOCCOCCCNC(=O)CCC(=O)NCCCOCCOCCOCCCN*; X7 = O=C(O)CN1CCN(CC(=O)O)CCN(CC(=O)NC2CCN(CC(=O)*)CC2)CCN(CC(=O)O)CC1; DOTA = O=C(O)CN1CCN(CC(=O)O)CCN(CC(=O)*)CCN(CC(=O)O)CC1; Phe(3-CF3) = N[C@@H](Cc1cccc(C(F)(F)F)c1)C(=O)O; Phe(4-Cl) = N[C@@H](Cc1ccc(Cl)cc1)C(=O)O; Propanoyl(3-SO2NH2) = NS(=O)(=O)CCC(=O)*; Phe(2-Cl) = N[C@@H](Cc1ccccc1Cl)C(=O)O; Arg(Me) = CNC(=N)NCCC[C@H](N)C(=O)O; Ethylenediamine = C(CN[*:2])N[*:1]; X1 = O=C(CC1CCN([*:1])CC1)[*:2]; Cit = NC(=O)NCCC[C@H](N)C(=O)O; Lys(Me) = CNCCCC[C@H](N)C(=O)O; Suc = O=C(CCC(=O)[*:2])[*:1]; Tle = CC(C)(C)[C@H](N)C(=O)O; Aib = CC(C)(N)C(=O)O; βAla = NCCC(=O)O

What was measured:
[1] = target: T1, PSMA-expressing C4-2 cells (Homo sapiens, UniProt Q04609); assay: FACS binding assay (competition with 50 nM PSM-0183); details: read-out: pIC50 [C4-2] CAT (converted)
T1 construct: PSMA-expressing C4-2 cells (ATCC, Cat. No. CRL-3314) were cultured in RPMI-1640; host or cells: C4-2 cells
Method in brief: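 Competition format: fluorescent tracer PSM-0183 (50 nM) displaced from PSMA on C4-2 cells by a test compound titration over 1 h at 4 °C. Bound tracer was quantified as flow-cytometric AF488 median fluorescence after washing. Four-parameter logistic fits of MFI data gave IC50 and pIC50.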

[2] = target: T2, Fc-fusion protein of human PSMA (hPSMA-Fc) (Homo sapiens, UniProt Q04609); assay: Surface plasmon resonance assay (Biacore T200, single cycle kinetic); assay type: binding; details: read-out: pKD CAT (converted)
T2 construct: purchased Acro Biosystems PSA-H5264
Method in brief: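 KD, expressed as pKD, came from 1:1 Langmuir fits of reference- and buffer-blank-subtracted SPR data. The runs were single-cycle kinetics at 25° C in HBST/0.1% DMSO over human PSMA-Fc, captured to ~1000 RU on a peptide-coated CM5 surface and regenerated with 10 mM glycine pH 1.5.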

[3] = pIC50 category of FACS binding, C4-2 cells
[4] = pKD category for PSMA SPR activity assay, hPSMA-Fc, 25° C.
[5] = FACS binding, C4-2 cells, competition with 50 nM PSM-0183, category
[6] = SPR, hPSMA-Fc, single cycle kinetic, 25° C., category
[7] = FACS binding, PSMA-expressing C4-2 cells, pIC50 category
[8] = PSMA SPR assay, hPSMA-Fc, 25° C., pKD category

T2 sequence (Q04609 44-750 limits assumed): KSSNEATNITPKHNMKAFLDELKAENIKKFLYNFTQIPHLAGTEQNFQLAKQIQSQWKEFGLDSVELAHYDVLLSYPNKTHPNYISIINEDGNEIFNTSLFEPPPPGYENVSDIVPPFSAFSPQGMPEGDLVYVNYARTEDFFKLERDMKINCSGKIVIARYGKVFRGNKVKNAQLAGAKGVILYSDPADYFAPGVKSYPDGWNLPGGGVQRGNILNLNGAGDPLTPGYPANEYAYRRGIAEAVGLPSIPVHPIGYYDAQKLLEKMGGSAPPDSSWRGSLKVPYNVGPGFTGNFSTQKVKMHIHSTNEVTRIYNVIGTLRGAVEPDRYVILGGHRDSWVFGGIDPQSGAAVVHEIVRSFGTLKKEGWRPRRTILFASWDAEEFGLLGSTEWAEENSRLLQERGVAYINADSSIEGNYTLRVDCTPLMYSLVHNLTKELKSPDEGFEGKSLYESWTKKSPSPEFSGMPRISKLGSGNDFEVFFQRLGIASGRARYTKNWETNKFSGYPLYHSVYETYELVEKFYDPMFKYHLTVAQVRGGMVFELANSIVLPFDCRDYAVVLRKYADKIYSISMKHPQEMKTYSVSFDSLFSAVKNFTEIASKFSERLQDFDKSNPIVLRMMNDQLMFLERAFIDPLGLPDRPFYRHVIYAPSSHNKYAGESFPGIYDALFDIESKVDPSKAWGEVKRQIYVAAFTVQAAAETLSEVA
T1 sequence (Q04609 whole entry): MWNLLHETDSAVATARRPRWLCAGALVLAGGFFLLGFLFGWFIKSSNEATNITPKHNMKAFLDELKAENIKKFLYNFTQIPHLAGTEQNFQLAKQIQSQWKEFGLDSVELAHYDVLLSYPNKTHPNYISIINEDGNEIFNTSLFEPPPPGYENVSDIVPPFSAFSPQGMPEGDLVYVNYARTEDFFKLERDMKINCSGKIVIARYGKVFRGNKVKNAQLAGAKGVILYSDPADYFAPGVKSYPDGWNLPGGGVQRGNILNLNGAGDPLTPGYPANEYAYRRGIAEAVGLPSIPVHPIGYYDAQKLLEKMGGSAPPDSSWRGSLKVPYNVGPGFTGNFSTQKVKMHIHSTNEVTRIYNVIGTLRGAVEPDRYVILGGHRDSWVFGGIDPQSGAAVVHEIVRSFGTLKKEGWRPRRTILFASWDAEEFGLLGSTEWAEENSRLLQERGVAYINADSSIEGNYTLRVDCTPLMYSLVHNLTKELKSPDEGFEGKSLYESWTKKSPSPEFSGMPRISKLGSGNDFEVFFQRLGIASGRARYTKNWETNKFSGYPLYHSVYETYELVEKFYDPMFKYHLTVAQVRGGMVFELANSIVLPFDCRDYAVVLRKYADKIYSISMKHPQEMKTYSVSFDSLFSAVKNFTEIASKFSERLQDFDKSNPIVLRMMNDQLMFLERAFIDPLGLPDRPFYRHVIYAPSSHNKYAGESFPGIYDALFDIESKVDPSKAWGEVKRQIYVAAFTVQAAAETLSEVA

Compound | IC50 [1, 3] [nM] | Kd [2, 4] [nM] | further results
CC(=O)N1CCC(CC(=O)N[C@H](C(=O)NC(C)(C)C(=O)N[C@@H](Cc2ccc(Cl)cc2)C(=O)N[C@H]2CSSC[C@@H](C(=O)N[C@H](C(=O)NCCNC(=O)CN3CCN(CC(=O)O)CCN(CC(=O)O)CCN(CC(=O)O)CC3)C(C)(C)C)NC(=O)[C@H](CC(N)=O)NC(=O)C(C)(C)NC(=O)[C@H](CCCNC(=N)N)NC(=O)[C@H](CCCCN)NC2=O)[C@@H](C)O)CC1 [PSM-0379, Ac-Cmp-Thr-Aib-Pcf-[Cys-Lys-Arg-Aib-Asn-Cys]-Tle-en-DOTA] (Ac-[X1]T[Aib][Phe(4-Cl)]CKR[Aib]NC[Tle]-{Ethylenediamine-DOTA}; disulfide 5-10) | < 200 | < 12.6 | 
CC(=O)NC(C)(C)C(=O)N[C@@H](Cc1ccccc1)C(=O)N[C@H]1CSSC[C@@H](C(=O)N[C@H](C(=O)N[C@H](C(=O)N[C@@H](CC(=O)O)C(N)=O)[C@@H](C)O)C(C)(C)C)NC(=O)[C@H](CC(N)=O)NC(=O)[C@H](C)NC(=O)[C@H](CCCNC(=N)N)NC(=O)[C@H](CCCCN)NC1=O [PSM-0506, Ac-Aib-Pho-[Cys-Lys-Arg-Ala-Asn-Cys]-Tle-Thr-Asp-NH2] (Ac-[Aib]FCKRANC[Tle]TD-NH2; disulfide 3-8) | < 200 | < 12.6 | 
CC(=O)N[C@H](C(=O)NC(C)(C)C(=O)N[C@@H](Cc1ccccc1)C(=O)N[C@H]1CSSC[C@@H](C(=O)N[C@H](C(=O)N[C@H](C(N)=O)[C@@H](C)O)C(C)(C)C)NC(=O)CNC(=O)C(C)(C)NC(=O)[C@H](CCCNC(=N)N)NC(=O)[C@H](CCCCN)NC1=O)[C@@H](C)O [PSM-0479, Ac-Thr-Aib-Phe-[Cys-Lys-Arg-Aib-Gly-Cys]-Tle-Thr-NH2] (Ac-T[Aib]FCKR[Aib]GC[Tle]T-NH2; disulfide 4-9) | < 200 | < 12.6 | 
C[C@@H](O)[C@H](NC(=O)[C@@H](NC(=O)[C@@H]1CSSC[C@H](NC(=O)[C@H](Cc2ccc(Cl)cc2)NC(=O)C(C)(C)NC(=O)CCS(N)(=O)=O)C(=O)N[C@@H](CCCCN)C(=O)N[C@@H](CCCNC(=N)N)C(=O)N[C@@H](CCCCNC(=O)CN2CCC(NC(=O)CN3CCN(CC(=O)O)CCN(CC(=O)O)CCN(CC(=O)O)CC3)CC2)C(=O)N[C@@H](CC(N)=O)C(=O)N1)C(C)(C)C)C(N)=O [PSM-0188, SaPr-Aib-Pcf-[Cys-Lys-Arg-Lys(DOTA-APAc)-Asn-Cys]-Tle-Thr-NH2] ({Propanoyl(3-SO2NH2)}-[Aib][Phe(4-Cl)]CKRK(X7)NC[Tle]T-NH2; disulfide 3-8) |  |  | IC50 [1, 5]: < 200 nM; Kd [2, 6]: < 12.6 nM
CNCCCC[C@@H]1NC(=O)[C@@H](NC(=O)[C@H](Cc2cccc(C(F)(F)F)c2)NC(=O)C(C)(C)NC(=O)[C@@H](NC(=O)CC2CCN(C(=O)CN3CCN(CC(=O)O)CCN(CC(=O)O)CCN(CC(=O)O)CC3)CC2)[C@@H](C)O)CSSC[C@@H](C(=O)N[C@H](C(N)=O)C(C)(C)C)NC(=O)[C@H](CC(N)=O)NC(=O)C(C)(C)NC(=O)[C@H](CCCNC(=N)NC)NC1=O [PSM-0396, DOTA-Cmp-Thr-Aib-Mtf-[Cys-Lys(Me)-Arg(Me)-Aib-Asn-Cys]-Tle-NH2] ({DOTA}-[X1]T[Aib][Phe(3-CF3)]C[Lys(Me)][Arg(Me)][Aib]NC[Tle]-NH2; disulfide 5-10) | < 200 | < 12.6 | 
CC(=O)N[C@H](C(=O)NC(C)(C)C(=O)N[C@@H](Cc1ccccc1)C(=O)N[C@H]1CSSC[C@@H](C(=O)N[C@H](C(=O)N[C@@H](CCC(N)=O)C(N)=O)C(C)(C)C)NC(=O)[C@H](CC(N)=O)NC(=O)C(C)(C)NC(=O)[C@H](CCCNC(=N)N)NC(=O)[C@H](CCCCN)NC1=O)[C@@H](C)O [PSM-0540, Ac-Thr-Aib-Phe-[Cys-Lys-Arg-Aib-Asn-Cys]-Tle-Gln-NH2] (Ac-T[Aib]FCKR[Aib]NC[Tle]Q-NH2; disulfide 4-9) | < 200 | < 12.6 | 
CC(=O)N[C@H](C(=O)NC(C)(C)C(=O)N[C@@H](Cc1ccccc1Cl)C(=O)N[C@H]1CSSC[C@@H](C(=O)N[C@H](C(=O)N[C@H](C(=O)N[C@@H](CC(=O)O)C(N)=O)[C@@H](C)O)C(C)(C)C)NC(=O)[C@H](CC(N)=O)NC(=O)C(C)(C)NC(=O)[C@H](CCCNC(=N)N)NC(=O)[C@H](CCCCN)NC1=O)[C@@H](C)O [PSM-0558, Ac-Thr-Aib-Ocf-[Cys-Lys-Arg-Aib-Asn-Cys]-Tle-Thr-Asp-NH2] (Ac-T[Aib][Phe(2-Cl)]CKR[Aib]NC[Tle]TD-NH2; disulfide 4-9) | < 200 | 12.6 to 126 | 
CC(=O)N[C@H](C(=O)NC(C)(C)C(=O)N[C@@H](Cc1ccccc1)C(=O)N[C@H]1CSSC[C@@H](C(=O)N[C@H](C(=O)N[C@H](C(N)=O)[C@@H](C)O)C(C)(C)C)NC(=O)[C@H](CO)NC(=O)C(C)(C)NC(=O)[C@H](CCCNC(=N)N)NC(=O)[C@H](CCCCN)NC1=O)[C@@H](C)O [PSM-0279, Ac-Thr-Aib-Phe-[Cys-Lys-Arg-Aib-Ser-Cys]-Tle-Thr-NH2] (Ac-T[Aib]FCKR[Aib]SC[Tle]T-NH2; disulfide 4-9) |  |  | IC50 [1, 7]: < 200 nM; Kd [2, 8]: < 12.6 nM
CC(=O)N[C@H](C(=O)NC(C)(C)C(=O)N[C@@H](Cc1ccccc1)C(=O)N[C@H]1CSSC[C@@H](C(=O)N[C@H](C(=O)NCCC(N)=O)C(C)(C)C)NC(=O)[C@H](CC(N)=O)NC(=O)C(C)(C)NC(=O)[C@H](CCCNC(=N)N)NC(=O)[C@H](CCCCN)NC1=O)[C@@H](C)O [PSM-0426, Ac-Thr-Aib-Phe-[Cys-Lys-Arg-Aib-Asn-Cys]-Tle-Bal-NH2] (Ac-T[Aib]FCKR[Aib]NC[Tle][βAla]-NH2; disulfide 4-9) | < 200 | < 12.6 | 
C[C@@H](O)[C@H](NC(=O)[C@@H](NC(=O)[C@@H]1CSSC[C@H](NC(=O)[C@H](Cc2ccc(Cl)cc2)NC(=O)C(C)(C)NC(=O)CCS(N)(=O)=O)C(=O)N[C@@H](CCCCN)C(=O)N[C@@H](CCCNC(=N)N)C(=O)NC(C)(C)C(=O)N[C@@H](CC(N)=O)C(=O)N1)C(C)(C)C)C(=O)N1CCC(CC(=O)N[C@H](CCCCNC(=O)CN2CCN(CC(=O)O)CCN(CC(=O)O)CCN(CC(=O)O)CC2)C(N)=O)CC1 [PSM-0215, SaPr-Aib-Pcf-[Cys-Lys-Arg-Aib-Asn-Cys]-Tle-Thr-Cmp-lys(DOTA)-NH2] ({Propanoyl(3-SO2NH2)}-[Aib][Phe(4-Cl)]CKR[Aib]NC[Tle]T[X1][dK](DOTA)-NH2; disulfide 3-8) |  |  | IC50 [1, 5]: < 200 nM; Kd [2, 6]: 12.6 to 126 nM
C[C@@H](O)[C@H](NC(=O)[C@@H](NC(=O)[C@@H]1CSSC[C@H](NC(=O)[C@H](Cc2ccc(Cl)cc2)NC(=O)C(C)(C)NC(=O)[C@@H](NC(=O)CCC(=O)NCCCOCCOCCOCCCNC(=O)CCC(=O)NCCCOCCOCCOCCCNC(=O)CCCC[C@@H]2SC[C@@H]3NC(=O)N[C@@H]32)[C@@H](C)O)C(=O)N[C@@H](CCCCN)C(=O)N[C@@H](CCCNC(=N)N)C(=O)NC(C)(C)C(=O)N[C@@H](CC(N)=O)C(=O)N1)C(C)(C)C)C(N)=O [PSM-0575, Bio-Ttds-Ttds-Thr-Aib-Pcf-[Cys-Lys-Arg-Aib-Asn-Cys]-Tle-Thr-NH2] ({X11-Suc}-T[Aib][Phe(4-Cl)]CKR[Aib]NC[Tle]T-NH2; disulfide 4-9) |  |  | IC50 ([1]; FACS binding, C4-2 cells, category): < 200 nM; Kd ([2]; PSMA SPR assay, category): < 12.6 nM
CC(=O)N[C@H](C(=O)NC(C)(C)C(=O)N[C@@H](Cc1ccc(Cl)cc1)C(=O)N[C@H]1CSSC[C@@H](C(=O)N[C@H](C(=O)N[C@H](C(=O)N[C@@H](CC(=O)O)C(N)=O)[C@@H](C)O)C(C)(C)C)NC(=O)[C@H](CC(N)=O)NC(=O)C(C)(C)NC(=O)[C@H](CCCNC(=N)N)NC(=O)[C@H](CCCCN)NC1=O)[C@@H](C)O [PSM-0318, Ac-Thr-Aib-Pcf-[Cys-Lys-Arg-Aib-Asn-Cys]-Tle-Thr-Asp-NH2] (Ac-T[Aib][Phe(4-Cl)]CKR[Aib]NC[Tle]TD-NH2; disulfide 4-9) |  |  | IC50 [1, 7]: < 200 nM; Kd [2, 8]: < 12.6 nM
CC(=O)N[C@H](C(=O)NC(C)(C)C(=O)N[C@@H](Cc1ccc(Cl)cc1)C(=O)N[C@H]1CSSC[C@@H](C(=O)N[C@H](CC(C)C)C(=O)N[C@H](C(N)=O)[C@@H](C)O)NC(=O)[C@H](CC(N)=O)NC(=O)C(C)(C)NC(=O)[C@H](CCCNC(N)=O)NC(=O)[C@H](CCCCN)NC1=O)[C@@H](C)O [PSM-0421, Ac-Thr-Aib-Pcf-[Cys-Lys-Cit-Aib-Asn-Cys]-leu-Thr-NH2] (Ac-T[Aib][Phe(4-Cl)]CK[Cit][Aib]NC[dL]T-NH2; disulfide 4-9) | 200 to 1260 | 126 to 501 | 
CC(=O)N[C@H](C(=O)NC(C)(C)C(=O)N[C@@H](Cc1ccc(Cl)cc1)C(=O)N[C@H]1CSSC[C@@H](C(=O)N[C@H](C(=O)N[C@H](C(=O)N2CCC(CC(=O)N[C@H](CCCCNC(=O)CN3CCN(CC(=O)O)CCN(CC(=O)O)CCN(CC(=O)O)CC3)C(N)=O)CC2)[C@@H](C)O)C(C)(C)C)NC(=O)[C@H](CC(N)=O)NC(=O)C(C)(C)NC(=O)[C@H](CCCNC(=N)N)NC(=O)[C@H](CCCCN)NC1=O)[C@@H](C)O [PSM-0482, Ac-Thr-Aib-Pcf-[Cys-Lys-Arg-Aib-Asn-Cys]-Tle-Thr-Cmp-lys(DOTA)-NH2] (Ac-T[Aib][Phe(4-Cl)]CKR[Aib]NC[Tle]T[X1][dK](DOTA)-NH2; disulfide 4-9) | < 200 | < 12.6 | 
